In patent EP0038572A1, “1-Nitro-9-hydroxyalkylaminoacridines or their salts” (priority 1980, dated 1981):

Tests used:
[1] = tested on: Crocker sarcoma (Sa-180); assay: Growth inhibition of Crocker sarcoma (Sa-180) in mice; assay type: in vivo; conditions: intraperitoneally, tumor weight vs control
Description: The growth inhibition of Crocker sarcoma (Sa-180) in mice.
For these experiments three-months old mice of about 25 g in weight were used. Each was inoculated with mouse sarcoma (Sa-180) and then they were divided into groups: a group of 10 control mice, and two to four test groups of 7 mice each.
The compounds to be investigated were administered intraperitoneally in appropriate doses after previous determination of maximum tolerance dose.
The percent difference between the mean weight of tumors isolated from control and test mice was accepted as a criterion for the evaluation of antineoplastic activity of the compounds, taking into account the toxic effects.
After doses of between 0.2-0.8 mg/kg the percent of inhibition was 44-86% respectively. Similarly, for the preparation allocated the code number C-934, i.e. 1-nitro-9-(hydroxybutylamino)acridine hydrochloride, after doses of between 0.2-0.4 mg/kg percent of inhibition was 45-60 % respectively.

[2] = Immunosuppressive action (contact allergy, local transplant-host reaction, post adjuvant multiarticular inflammation tests); assay type: in vivo; conditions: appears only after the total dose corresponding to 1/5 of LD50
Description: (§1) In a dose corresponding to 1/2 of LD50 it inhibits the spontaneous mobility and shortens hexobarbital anaesthesia. […] Its immunosuppresive action measured in contact allergy tests, local transplant-host reaction tests and post adjuvant multiarticular inflammation is minimal and appears only after the total dose corresponding to 1/5 of LD50.

[3] = Long-term toxicity evaluations (3 months); assay type: in vivo, mice, rats and rabbits
Description: (§2) Pharmacological examination of the compound C-857 was carried out in mice, rats and rabbits. The acute, subacute, and long-term toxicity were studied in rats and rabbits (orally and intraperitoneally) and in mice (intraperitoneally). […] In the subacute toxicity studies (3 weeks) 1/60 and 1/120 of LD50 were considered; in the long-term toxicity evaluations (3 months) - 1/200 and 1/400 of LD50.
The preparation C-857 was found not to change the spleen-liver index.
No changes of urea and creatinine content were found.

[4] = Acute toxicity in rabbits; conditions: rabbit, in vivo, route not given
Description: as §2

[5] = Acute toxicity in mice; assay type: in vivo; conditions: intraperitoneally
Description: The acute, subacute, and long-term toxicity were studied in rats and rabbits (orally and intraperitoneally) and in mice (intraperitoneally).

[6] = Acute toxicity in rats; conditions: rat, in vivo, iv, intravenously
[7] = General pharmacological examination (circulatory, spasmolytic, central nervous system); assay type: in vivo, mice, rats and rabbits
Description: as §2, §1

[8] = tested on: cells forming colonies in marrow; set-up: species or system mice; conditions: mouse, in vivo
Description: The effect of action of compound C-857 is similar to that of Bleomicine which is non-toxic for marrow.

[9] = Subacute toxicity studies (3 weeks); assay type: in vivo, mice, rats and rabbits
Description: as §2
About 15-40 % of total number of mice died after a dose of 1/120 of LD50. The increase in the number of leucocytes (particularly in rabbits) and decrease in relative number of lymphocytes were observed. However, no changes in the number of red cells were found. […] The preparation C-857 induced some drop of the urine level in rabbits.

[10] = Vomiting effect in pigeons; assay type: in vivo
[11] = dose corresponding to 1/2 of LD50
[12] = intravenously, doses increasing to 20 mg/kg

## Cl.O=[N+]([O-])c1cccc2nc3ccccc3c(NCCCCO)c12 [Example C-934, 1-nitro-9(4-hydroxybutylamino)acridine hydrochloride]
[1]; doses of between 0.2-0.4 mg/kg
  percent of inhibition: 45-60%

## Cl.O=[N+]([O-])c1cccc2nc3ccccc3c(NCCO)c12 [Example C-857, 1-nitro-9-(2-hydroxyethylamino)-acridine hydrochloride]
[2]
  immunosuppresive action: minimal
[3]; 3 months, 1/200 and 1/400 of LD50
  general changes in long-term toxicity observation: decrease in physical activity, lack of thirst or occasional diarrhoea
[3]; administrated intraperitoneally
  local action: locally irritating action
[3]; in rabbits and rats
  leucocytes (hematologic studies): leucocytosis
  relative content of eosinophis: decrease
[3]; in rabbits, hematologic studies
  value of hematocrit: decrease
[3]; in vivo
  activity of AspAT and ALAT enzymes: no changes
  activity of alkaline phosphatase: Slight changes
  urea and creatinine content: No changes
[3]; long-term
  changes in liver and kidneys: Insignificant changes
  changes in thymus gland and intestine: no changes
  spleen-liver index: not to change
[4]
  LD50: 11.4 mg/kg
[5]
  maximal tolerated dose, LD10: 2.5 mg/kg
[5]; mouse, in vivo, ip
  LD50: 10.6 mg/kg
[6]
  LD50: 9.2 mg/kg
[7]; [11]
  hexobarbital anaesthesia: shortens
  spontaneous mobility: inhibits
[7]; in vivo
  analgestic or anti-conclusive activity: does not show any
  effect on central nervous system: weak and irregular
[7]; [12]
  effect on the circulatory system: did not exert any significant effect
  spasmolytic action: weak
[8]
  myclo- toxic effect on cells forming colonies in marrow: not to produce myclo- toxic effect
[9]; 3 weeks, 1/60 and 1/120 of LD50
  effects observed in the subacute toxicity investigations: moult, dyspndea, lack of thirst, diarrhoea, and loss of body weight
[9]; mice, dose of 1/120 of LD50, subacute
  total number of mice died: 15-40%
[9]; rabbits, subacute
  urine level: some drop
[9]; subacute
  Liver and kidney function tests: no pathological abnormalities
  histologic studies, findings: nectrotic inflammation of the liver capsule and peritoneum of intestine wall
  histologic studies, interneal organs (liver, kidney, thymus gland): No pathological abnormalities
  number of red cells: no changes
  relative number of lymphocytes: decrease
[9]; subacute, particularly in rabbits
  number of leucocytes: increase
[10]
  vomiting effect: did not exert vomiting effect
[1]; doses of between 0.2-0.8 mg/kg
  percent of inhibition: 44-86%
